Laboratory results taken from publication PMC4858212, “Production of the Ramoplanin Activity Analogue by Double Gene Inactivation” (PLoS ONE, 2016).
Converted amounts (≈) assume the structure as drawn. Like-named read-outs stand apart in the source and are kept apart here. Numbered stars: 1 amine (or outer) side, 2 acyl side, 3 side chain; on linkers, the order of the positions; unused ones are H or OH. Bridge positions count the residues as written; N and C are the ends. Square brackets hold non-standard residues; d marks the D form. Peptide text beside a SMILES is read from it. * marks the point of attachment. Hpg(αMan(1-2)αMan) = N[C@H](C(=O)O)c1ccc(O[C@H]2O[C@H](CO)[C@@H](O)[C@H](O)[C@@H]2O[C@H]2O[C@H](CO)[C@@H](O)[C@H](O)[C@@H]2O)cc1; Octa(2Z,4E)dienoyl(7-Me) = CC(C)C/C=C/C=C\C(=O)*; X1 = NC(=O)[C@@H](O[*:3])[C@H](N[*:1])C(=O)[*:2]; Hpg(3-Cl) = N[C@H](C(=O)O)c1ccc(O)c(Cl)c1; d(aThr) = C[C@@H](O)[C@@H](N)C(=O)O; dHpg = N[C@@H](C(=O)O)c1ccc(O)cc1; Hpg = N[C@H](C(=O)O)c1ccc(O)cc1; aThr = C[C@H](O)[C@H](N)C(=O)O; dOrn = NCCC[C@@H](N)C(=O)O

Columns and labels:
[1] = tested on: Enterococcus faecalis ATCC51299
Protocol: (§1) The activies of ramoplanin and its analogs against MRSA and VRE were determined using a liquid microdilution method. MIC values were detected according to the CLSI guidelines. ATCC 25923 (methicillin-sensitive Staphylococcus aureus, MSSA), ATCC 43300 (methicillin-resistant Staphylococcus aureus, MRSA), ATCC 29212 (Enterococcus faecalis) and ATCC 51299 (vancomycin-resistant Enterococcus faecalis, VRE) were employed in this study. Ramoplanin and its analogs were dissolved in 30% methyl alcohol, which was also used as the negative control during the serial tests.
(§2) Antibacterial activities of purified deschlororamoplanin A2 aglycone were compared with ramoplanin A2 and ramoplanin A2 aglycone. The MICs of ramoplanin A2, ramoplanin A2 aglycone and deschlororamoplanin A2 aglycone against ATCC 25923 (methicillin-sensitive Staphylococcus aureus, MSSA), ATCC 43300 (methicillin-resistant Staphylococcus aureus, MRSA), ATCC 29212 (Enterococcus faecalis) and ATCC 51299 (vancomycin-resistant Enterococcus faecalis, VRE) were determined.

[2] = tested on: Staphylococcus aureus ATCC43300
Protocol: as §1, §2

[3] = tested on: Enterococcus faecalis ATCC29212
Protocol: as §1, §2

[4] = tested on: Staphylococcus aureus ATCC25923
Protocol: as §1, §2

| Compound | MIC ([1]; ATCC51299) | MIC ([2]; ATCC43300) | MIC ([3]; ATCC29212) | MIC ([4]; ATCC25923) | MIC ([1]; Enterococcus faecalis ATCC51299 (vancomycin-resistant, VRE), liquid microdilution, CLSI guidelines, compounds dissolved in 30% methyl alcohol) | MIC ([2]; Staphylococcus aureus ATCC43300 (methicillin-resistant, MRSA), liquid microdilution, CLSI guidelines, compounds dissolved in 30% methyl alcohol) | MIC ([3]; Enterococcus faecalis ATCC29212, liquid microdilution, CLSI guidelines, compounds dissolved in 30% methyl alcohol) | MIC ([4]; Staphylococcus aureus ATCC25923 (methicillin-sensitive, MSSA), liquid microdilution, CLSI guidelines, compounds dissolved in 30% methyl alcohol) |
| --- | --- | --- | --- | --- | --- | --- | --- | --- |
| CC(C)C/C=C/C=C\C(=O)N[C@@H](CC(N)=O)C(=O)N[C@@H]1C(=O)N[C@H](c2ccc(O)cc2)C(=O)N[C@H](CCCN)C(=O)N[C@H]([C@@H](C)O)C(=O)N[C@@H](c2ccc(O)cc2)C(=O)N[C@H](c2ccc(O)cc2)C(=O)N[C@@H]([C@H](C)O)C(=O)N[C@@H](Cc2ccccc2)C(=O)N[C@H](CCCN)C(=O)N[C@@H](c2ccc(O)cc2)C(=O)N[C@H]([C@@H](C)O)C(=O)N[C@@H](c2ccc(O)cc2)C(=O)NCC(=O)N[C@@H](CC(C)C)C(=O)N[C@H](C)C(=O)N[C@@H](c2ccc(O)cc2)C(=O)O[C@@H]1C(N)=O [Deschlororamoplanin A2 aglycone] ({Octa(2Z,4E)dienoyl(7-Me)}-N[X1][dHpg][dOrn][d(aThr)][Hpg][dHpg][aThr]F[dOrn][Hpg][d(aThr)][Hpg]GL[dA][Hpg]; ester 2-C) | 1 µg/mL (≈ 0.456 µM) | 4 µg/mL (≈ 1.82 µM) | 1 µg/mL (≈ 0.456 µM) | 2 µg/mL (≈ 0.911 µM) | – | – | – | – |
| CC(C)C/C=C/C=C\C(=O)N[C@@H](CC(N)=O)C(=O)N[C@@H]1C(=O)N[C@H](c2ccc(O)cc2)C(=O)N[C@H](CCCN)C(=O)N[C@H]([C@@H](C)O)C(=O)N[C@@H](c2ccc(O)cc2)C(=O)N[C@H](c2ccc(O)cc2)C(=O)N[C@@H]([C@H](C)O)C(=O)N[C@@H](Cc2ccccc2)C(=O)N[C@H](CCCN)C(=O)N[C@@H](c2ccc(O[C@H]3O[C@H](CO)[C@@H](O)[C@H](O)[C@@H]3O[C@H]3O[C@H](CO)[C@@H](O)[C@H](O)[C@@H]3O)cc2)C(=O)N[C@H]([C@@H](C)O)C(=O)N[C@@H](c2ccc(O)cc2)C(=O)NCC(=O)N[C@@H](CC(C)C)C(=O)N[C@H](C)C(=O)N[C@@H](c2ccc(O)cc2)C(=O)O[C@@H]1C(N)=O [Deschlororamoplanin A2] ({Octa(2Z,4E)dienoyl(7-Me)}-N[X1][dHpg][dOrn][d(aThr)][Hpg][dHpg][aThr]F[dOrn][Hpg(αMan(1-2)αMan)][d(aThr)][Hpg]GL[dA][Hpg]; ester 2-C) | 1 µg/mL (≈ 0.397 µM) | 2 µg/mL (≈ 0.794 µM) | 1 µg/mL (≈ 0.397 µM) | 2 µg/mL (≈ 0.794 µM) | – | – | – | – |
| CC(C)C/C=C/C=C\C(=O)N[C@@H](CC(N)=O)C(=O)N[C@@H]1C(=O)N[C@H](c2ccc(O)cc2)C(=O)N[C@H](CCCN)C(=O)N[C@H]([C@@H](C)O)C(=O)N[C@@H](c2ccc(O)cc2)C(=O)N[C@H](c2ccc(O)cc2)C(=O)N[C@@H]([C@H](C)O)C(=O)N[C@@H](Cc2ccccc2)C(=O)N[C@H](CCCN)C(=O)N[C@@H](c2ccc(O)cc2)C(=O)N[C@H]([C@@H](C)O)C(=O)N[C@@H](c2ccc(O)cc2)C(=O)NCC(=O)N[C@@H](CC(C)C)C(=O)N[C@H](C)C(=O)N[C@@H](c2ccc(O)c(Cl)c2)C(=O)O[C@@H]1C(N)=O [Ramoplanin A2 aglycone] ({Octa(2Z,4E)dienoyl(7-Me)}-N[X1][dHpg][dOrn][d(aThr)][Hpg][dHpg][aThr]F[dOrn][Hpg][d(aThr)][Hpg]GL[dA][Hpg(3-Cl)]; ester 2-C) | 1 µg/mL (≈ 0.448 µM) | 2 µg/mL (≈ 0.897 µM) | 0.5 µg/mL (≈ 0.224 µM) | 2 µg/mL (≈ 0.897 µM) | – | – | – | – |
| CC(C)C/C=C/C=C\C(=O)N[C@@H](CC(N)=O)C(=O)N[C@@H]1C(=O)N[C@H](c2ccc(O)cc2)C(=O)N[C@H](CCCN)C(=O)N[C@H]([C@@H](C)O)C(=O)N[C@@H](c2ccc(O)cc2)C(=O)N[C@H](c2ccc(O)cc2)C(=O)N[C@@H]([C@H](C)O)C(=O)N[C@@H](Cc2ccccc2)C(=O)N[C@H](CCCN)C(=O)N[C@@H](c2ccc(O[C@H]3O[C@H](CO)[C@@H](O)[C@H](O)[C@@H]3O[C@H]3O[C@H](CO)[C@@H](O)[C@H](O)[C@@H]3O)cc2)C(=O)N[C@H]([C@@H](C)O)C(=O)N[C@@H](c2ccc(O)cc2)C(=O)NCC(=O)N[C@@H](CC(C)C)C(=O)N[C@H](C)C(=O)N[C@@H](c2ccc(O)c(Cl)c2)C(=O)O[C@@H]1C(N)=O [Ramoplanin A2] ({Octa(2Z,4E)dienoyl(7-Me)}-N[X1][dHpg][dOrn][d(aThr)][Hpg][dHpg][aThr]F[dOrn][Hpg(αMan(1-2)αMan)][d(aThr)][Hpg]GL[dA][Hpg(3-Cl)]; ester 2-C) | 1 µg/mL (≈ 0.392 µM) | 4 µg/mL (≈ 1.57 µM) | 1 µg/mL (≈ 0.392 µM) | 2 µg/mL (≈ 0.783 µM) | – | – | – | – |
| Enduracidin | – | – | – | – | 8 µg/mL | 8 µg/mL | 8 µg/mL | 8 µg/mL |
